Results on 24 compounds are retold here after ChEMBL document CHEMBL3352598, “Synthesis, pharmacological evaluation and molecular modeling studies of triazole containing dopamine D3 receptor ligands” (Bioorg Med Chem Lett, 2015).

SMILES strings stand for the structures.

Experiment [1] concerns the target D(3) dopamine receptor (Homo sapiens, UniProt P35462). Briefly: biochemical. The format is cell-based, HEK293.
Experiment [2] addresses D(2) dopamine receptor (Homo sapiens, UniProt P14416). Kind of experiment: biochemical. The format is cell-based, HEK293.
The species entered for experiment [3] is Homo sapiens. Briefly: Selectivity index, ratio of Ki for D4 receptor to Ki for human D3 receptor.
Experiment [4] concerns the target T1, 5-hydroxytryptamine receptor 1A (Homo sapiens, UniProt P08908).
T1 sequence (P08908 whole entry): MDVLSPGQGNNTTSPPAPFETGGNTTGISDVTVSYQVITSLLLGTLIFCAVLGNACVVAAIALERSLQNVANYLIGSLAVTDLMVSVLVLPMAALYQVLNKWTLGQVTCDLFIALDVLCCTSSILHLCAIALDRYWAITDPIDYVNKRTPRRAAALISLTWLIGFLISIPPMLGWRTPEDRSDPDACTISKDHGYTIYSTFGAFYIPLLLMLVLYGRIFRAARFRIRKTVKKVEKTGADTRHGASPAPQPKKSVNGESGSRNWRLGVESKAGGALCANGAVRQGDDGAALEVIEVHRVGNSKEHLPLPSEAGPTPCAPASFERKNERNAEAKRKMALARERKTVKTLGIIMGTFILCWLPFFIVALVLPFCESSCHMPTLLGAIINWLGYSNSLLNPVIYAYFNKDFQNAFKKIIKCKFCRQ
Briefly: Displacement of [3H]8-OH-DPAT from human 5HT1A receptor after 60 mins by filtration binding assay. In general terms: Loss of bound radioactivity is the signal in a displacement assay; it reports binding, not function.

Experiment [5] concerns the target T2, D(4) dopamine receptor (Homo sapiens, UniProt P21917).
T2 sequence (P21917 whole entry): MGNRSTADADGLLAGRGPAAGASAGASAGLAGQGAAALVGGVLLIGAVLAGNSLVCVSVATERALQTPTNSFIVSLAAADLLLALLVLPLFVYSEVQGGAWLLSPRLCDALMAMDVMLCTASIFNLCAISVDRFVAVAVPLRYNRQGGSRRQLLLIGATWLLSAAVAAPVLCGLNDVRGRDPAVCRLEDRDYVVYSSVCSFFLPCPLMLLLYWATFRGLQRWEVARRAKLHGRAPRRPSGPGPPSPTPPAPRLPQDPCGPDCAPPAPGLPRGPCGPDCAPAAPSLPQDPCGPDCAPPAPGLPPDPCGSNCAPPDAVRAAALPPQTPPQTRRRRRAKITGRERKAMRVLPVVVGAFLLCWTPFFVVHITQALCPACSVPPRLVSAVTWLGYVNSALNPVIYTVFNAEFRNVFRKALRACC
Briefly: Displacement of [125I]-IABN from human D4 receptor expressed in HEK293 cell membranes after 60 mins by filtration binding assay.

Sequence of D(3) dopamine receptor (P35462 whole entry): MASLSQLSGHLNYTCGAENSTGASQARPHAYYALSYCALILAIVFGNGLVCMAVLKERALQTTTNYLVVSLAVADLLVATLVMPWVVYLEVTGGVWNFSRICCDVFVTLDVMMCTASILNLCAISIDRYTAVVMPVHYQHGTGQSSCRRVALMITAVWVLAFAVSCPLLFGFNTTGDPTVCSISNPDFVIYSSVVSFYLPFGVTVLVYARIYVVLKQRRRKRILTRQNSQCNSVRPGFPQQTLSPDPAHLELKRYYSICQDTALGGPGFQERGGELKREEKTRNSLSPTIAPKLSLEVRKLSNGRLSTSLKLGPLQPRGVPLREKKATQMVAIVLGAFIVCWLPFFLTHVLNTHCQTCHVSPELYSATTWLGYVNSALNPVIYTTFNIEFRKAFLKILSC
Sequence of D(2) dopamine receptor (P14416 whole entry): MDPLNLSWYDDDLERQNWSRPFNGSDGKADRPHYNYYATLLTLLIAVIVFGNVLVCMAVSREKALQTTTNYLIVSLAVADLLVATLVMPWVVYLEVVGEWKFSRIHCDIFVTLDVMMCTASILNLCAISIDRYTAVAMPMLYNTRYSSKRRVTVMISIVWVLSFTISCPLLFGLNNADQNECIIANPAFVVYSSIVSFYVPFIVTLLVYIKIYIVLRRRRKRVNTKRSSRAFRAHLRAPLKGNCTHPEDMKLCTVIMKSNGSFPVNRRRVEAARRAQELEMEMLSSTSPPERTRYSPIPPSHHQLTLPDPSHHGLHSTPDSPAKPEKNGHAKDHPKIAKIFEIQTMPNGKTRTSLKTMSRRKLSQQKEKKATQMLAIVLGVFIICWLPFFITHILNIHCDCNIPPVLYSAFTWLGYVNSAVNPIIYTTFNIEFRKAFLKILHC

Usually Ki stands for the dissociation constant of the complex between target and ligand, obtained from inhibition or displacement. For `COc1ccccc1N1CCN(CCCc2cn(-c3cccc4cnccc34)nn2)CC1`, the Ki was 36.3 nM in experiment [1] and 79.3 nM in experiment [2].
For `COc1ccccc1N1CCN(CCCc2cn(-c3ccccc3OC)nn2)CC1`, in that order: 93.1 nM and 272 nM.
Consider `COc1ccccc1N1CCN(CCCCCc2cn(-c3cccc4cnccc34)nn2)CC1`, for which the Ki in experiment [1] turned out to be 1.8 nM; in experiment [4], 5.8 nM; in experiment [2], 17.7 nM; in experiment [5] it was 186 nM. The Ratio Ki in experiment [3] was determined as 103.
Consider `COc1ccccc1N1CCN(CCCc2cn(-c3ccccc3O)nn2)CC1`, for which the inhibition constant Ki amounted to 6.8 nM in experiment [1] and 12.8 nM in experiment [2].
`COc1ccccc1N1CCN(CCCCc2cn(-c3cccc4cnccc34)nn2)CC1`: the Ki in experiment [1] stood at 3.7 nM; in experiment [4] it was 6 nM; in experiment [2], 42.3 nM; in experiment [5] it was 875 nM. The Ratio Ki in experiment [3] is 237.
For `COc1ccccc1N1CCN(CCCCCc2cn(-c3ccc(-c4ccsc4)cc3)nn2)CC1`, in that order: 6.3 nM, 153 nM, 109 nM, 163 nM and 26.
In the same order, the values of `COc1ccccc1N1CCN(CCCCc2cn(-c3ccc(SC)cc3)nn2)CC1` are 2.1 nM, 5.3 nM, 37.7 nM, 200 nM and 95.
`COc1ccccc1N1CCN(CCCCc2cn(-c3ccccc3)nn2)CC1`: the Ki came to 4.7 nM in experiment [1] and 30.9 nM in experiment [2].
In the same order, the values of `COc1ccccc1N1CCN(CCCCCc2cn(-c3ccc(N(C)C)cc3)nn2)CC1` are 6.7 nM and 62.6 nM.
On to `COc1ccccc1N1CCN(CCCCCc2cn(-c3ccccc3)nn2)CC1`, for which the Ki amounted to 3.1 nM in experiment [1] and 19.4 nM in experiment [2].
Turning to `COc1ccccc1N1CCN(CCCc2cn(-c3ccc(-c4ccsc4)cc3)nn2)CC1`, the Ki in experiment [1] was found to be 8.9 nM; in experiment [4], 7.4 nM; in experiment [2], 158 nM; in experiment [5] it was 90 nM. Moreover, the Ratio Ki in experiment [3] is 10.
Turning to `COc1ccccc1N1CCN(CCCCc2cn(-c3ccccc3OC)nn2)CC1`, the figures for the Ki in experiment [1] and in experiment [2] were 25.4 nM and 139 nM, respectively.
Turning to `COc1ccccc1N1CCN(CCCCc2cn(-c3ccc(F)cc3)nn2)CC1`, the Ki in experiment [1] is 6.5 nM; in experiment [2] it was 46.7 nM.
`COc1ccccc1N1CCN(CCCc2cn(-c3ccc(F)cc3)nn2)CC1`: the Ki in experiment [1] was 26.5 nM; in experiment [2] it was 73.5 nM.
`COc1ccccc1N1CCN(CCCCc2cn(-c3ccc(-c4ccsc4)cc3)nn2)CC1`: the inhibition constant (Ki) in experiment [1] is 8.2 nM; in experiment [4], 1.3 nM; in experiment [2] it was 94.3 nM; in experiment [5], 395 nM. Besides, the Ratio Ki in experiment [3] was found to be 48.
For `COc1ccccc1N1CCN(CCCCc2cn(-c3ccc(N(C)C)cc3)nn2)CC1`, in that order: 13.9 nM, 9.4 nM, 171 nM, 758 nM and 55.
Consider `COc1ccccc1N1CCN(CCCCCc2cn(-c3ccc(SC)cc3)nn2)CC1`, for which the Ki turned out to be 2.3 nM in experiment [1], 3.9 nM in experiment [4], 26.6 nM in experiment [2] and 227 nM in experiment [5]. In experiment [3], the Ratio Ki is 99.
Turning to `COc1ccccc1N1CCN(CCCCCc2cn(-c3ccc(F)cc3)nn2)CC1`, the Ki in experiment [1] was found to be 3.2 nM; in experiment [2] it was 23.7 nM.
`COc1ccccc1N1CCN(CCCCCc2cn(-c3ccccc3OC)nn2)CC1`: the Ki in experiment [1] stood at 21.1 nM; in experiment [2], 62.7 nM.
For `COc1ccccc1N1CCN(CCCc2cn(-c3ccc(N(C)C)cc3)nn2)CC1`, the Ki in experiment [1] is 29.6 nM; in experiment [2] it was 162 nM.
In the same order, the values of `COc1ccccc1N1CCN(CCCCc2cn(-c3ccccc3O)nn2)CC1` are 2.9 nM and 9.4 nM.
For `COc1ccccc1N1CCN(CCCc2cn(-c3ccccc3)nn2)CC1`, in that order: 22.2 nM and 64 nM.
In the case of `COc1ccccc1N1CCN(CCCc2cn(-c3ccc(SC)cc3)nn2)CC1`, the results for the Ki in experiment [1] and in experiment [2] were 9.6 nM and 44.1 nM, respectively.
As to `COc1ccccc1N1CCN(CCCCNC(=O)c2ccc(N(C)C)cc2)CC1`, the Ratio Ki in experiment [3] is 1120. In experiment [4], this compound showed a Ki of 7.5 nM.
